# Assay results: US20130172320A1, “PYRIDO [4,3-B] INDOLE AND PYRIDO [3,4-B] INDOLE DERIVATIVES AND METHODS OF USE” (priority 2010, published 2013)
# What was measured:
# [1] = target: T1, rat adrenergic α1A receptor (Rattus norvegicus, UniProt P43140); assay: Adrenergic α1A radioligand binding ([3H]Prazosin); parameters: species or system Wistar Rat; settings: compound at 0.1 μM; read-out: Percentage inhibition of ligand binding, Adrenergic (0.1 μM) a1A
# T1 construct: rat adrenergic α1A receptor obtained from Wistar Rat submaxillary glands; from tissue; host or cells: Wistar Rat submaxillary glands
# T1 sequence (P43140 1-466): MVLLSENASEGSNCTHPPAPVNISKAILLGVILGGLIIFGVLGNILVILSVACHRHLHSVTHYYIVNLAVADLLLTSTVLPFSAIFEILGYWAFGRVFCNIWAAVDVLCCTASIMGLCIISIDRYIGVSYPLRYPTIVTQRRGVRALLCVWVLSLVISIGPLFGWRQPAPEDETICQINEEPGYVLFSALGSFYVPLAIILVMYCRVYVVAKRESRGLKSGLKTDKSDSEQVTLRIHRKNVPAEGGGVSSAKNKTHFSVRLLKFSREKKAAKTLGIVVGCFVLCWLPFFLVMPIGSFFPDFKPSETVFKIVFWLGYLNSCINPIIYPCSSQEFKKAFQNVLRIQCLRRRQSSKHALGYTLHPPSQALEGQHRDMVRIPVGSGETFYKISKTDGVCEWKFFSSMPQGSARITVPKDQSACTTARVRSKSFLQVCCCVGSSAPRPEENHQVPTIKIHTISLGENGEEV
# Protocol: (§1) To evaluate in radioligand binding assays the activity of compounds of the invention, rat adrenergic α1A receptor obtained from Wistar Rat submaxillary glands (Michel, A. et al, Br. J. Pharmacol. 98:883, 1989) in a modified Tris-HCl buffer (50 mM Tris-HCl buffer, pH 7.4, 0.5 mM EDTA) was used. Compounds of the invention were incubated with 0.25 nM [^3H]Prazosin for 60 min at 25° C. Non-specific binding was estimated in the presence of 10 μM phentolamine Receptor proteins were filtered and washed, the filters were then counted to determine [^3H]Prazosin specifically bound. Compounds of the invention were screened at 1 μM or lower, using 1% DMSO as vehicle. Biochemical assay results are presented as the percent inhibition of specific binding in Table 3.
# [2] = target: T2, rat adrenergic α1B receptor (Rattus norvegicus, UniProt P15823); assay: Adrenergic α1B radioligand binding ([3H]Prazosin); parameters: species or system Wistar Rat; settings: compound at 0.1 μM; read-out: Percentage inhibition of ligand binding, Adrenergic (0.1 μM) a1B
# T2 construct: rat adrenergic α1B receptor obtained from Wistar Rat liver; from tissue; host or cells: Wistar Rat liver
# T2 sequence (P15823 1-515): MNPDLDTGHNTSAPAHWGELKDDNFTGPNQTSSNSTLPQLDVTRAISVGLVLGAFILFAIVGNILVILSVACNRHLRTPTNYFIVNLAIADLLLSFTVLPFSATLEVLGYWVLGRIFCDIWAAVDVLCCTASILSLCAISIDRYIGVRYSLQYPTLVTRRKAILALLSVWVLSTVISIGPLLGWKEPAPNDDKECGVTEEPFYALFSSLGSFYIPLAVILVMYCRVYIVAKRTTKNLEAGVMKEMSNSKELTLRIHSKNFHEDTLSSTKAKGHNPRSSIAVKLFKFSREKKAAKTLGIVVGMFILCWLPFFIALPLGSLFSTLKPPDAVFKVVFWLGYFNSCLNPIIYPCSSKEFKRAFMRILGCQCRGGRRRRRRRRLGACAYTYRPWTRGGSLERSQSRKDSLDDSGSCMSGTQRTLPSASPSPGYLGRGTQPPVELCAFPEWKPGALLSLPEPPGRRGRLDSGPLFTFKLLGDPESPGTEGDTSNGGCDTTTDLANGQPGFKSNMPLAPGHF
# Protocol: as §1, with “rat adrenergic α1B receptor obtained” for “rat adrenergic α1A receptor obtained”, “Wistar Rat liver (Garcia-S'ainz, J. et al, Biochem. Biophys. Res. Commun. 186:760, 1992; Michel, A. et” for “Wistar Rat submaxillary glands (Michel, A. et”, “10 μM phentolamine. Receptor proteins” for “10 μM phentolamine Receptor proteins”, “bound. Compounds were screened” for “bound. Compounds of the invention were screened”
# [3] = target: T3, human recombinant adrenergic α2C receptor (Homo sapiens, UniProt P18825); assay: Adrenergic α2C radioligand binding ([3H]MK-912); settings: compound at 0.1 μM; read-out: Percentage inhibition of ligand binding, Adrenergic (0.1 μM) a2C
# T3 construct: expressed in transfected cells; host or cells: insect Sf9 cells
# T3 sequence (P18825 1-462): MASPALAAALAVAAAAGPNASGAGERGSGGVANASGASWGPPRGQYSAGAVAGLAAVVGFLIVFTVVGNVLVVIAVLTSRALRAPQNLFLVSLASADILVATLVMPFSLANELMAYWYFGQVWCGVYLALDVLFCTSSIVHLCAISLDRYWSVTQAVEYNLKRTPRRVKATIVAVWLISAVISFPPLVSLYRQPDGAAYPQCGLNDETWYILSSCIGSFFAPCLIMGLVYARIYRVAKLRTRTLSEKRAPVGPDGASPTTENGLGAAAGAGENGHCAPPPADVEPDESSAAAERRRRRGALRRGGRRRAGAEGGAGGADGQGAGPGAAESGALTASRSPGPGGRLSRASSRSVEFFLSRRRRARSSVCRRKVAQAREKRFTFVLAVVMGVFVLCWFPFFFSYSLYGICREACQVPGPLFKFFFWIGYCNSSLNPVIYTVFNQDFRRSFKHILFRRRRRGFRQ
# Protocol: To evaluate in radioligand binding assays the activity of compounds of the invention, human recombinant adrenergic α2C receptor expressed in insect Sf9 cells (Uhlen, S. et al, J. Pharmacol. Exp. Ther. 271:1558, 1994) in a modified Tris-HCl buffer (50 mM Tris-HCl, pH 7.4, 12.5 mM MgCl2, 2 mM EDTA) was used. Compounds of the invention were incubated with 1 nM [^3H]MK-912 for 60 min at 25° C. Non-specific binding was estimated in the presence of 10 μM WB-4101. Receptor proteins were filtered and washed, the filters were then counted to determine [^3H]MK-912 specifically bound. Compounds were screened at 1 μM or lower, using 1% DMSO as vehicle. Biochemical assay results are presented as the percent inhibition of specific binding in Table 3.
SMILES,inhibition at 0.1 µM [1],inhibition at 0.1 µM [2],inhibition at 0.1 µM [3]
"C#CCC1(C)CN(C)Cc2c1n(C)c1ccc(C)cc21 (stereo not drawn) [Compound 47, 2,4,5,8-tetramethyl-4-(prop-2-ynyl)-2,3,4,5-tetrahydro-1H-pyrido[4,3-b]indole]",16%,34%,8%
Cc1ccc2c(c1)c1c(n2C)C(C)(CCc2nc(-c3ccccc3)cs2)CN(C)C1 (stereo not drawn) [Compound 48],34%,20%,15%
